According to publication PMC11859423, “Fluorescent Probes to Image the KCa3.1 Channel in Tumor Cells” (Pharmaceutics, 2025):
Values joined by “and” are separate entries in the source; they are usually repeats but may differ in a detail not shown here. Identical values can stand only once. “Also recorded” adds a separate entry of the source. Like-named read-outs stand apart in the source and are kept apart here.

Columns and labels:
[1] = cited from earlier work; for Absorption λmax / Emission λmax / Stokes Shift / ΦF absolute quantum yield / τ photoluminescence lifetime: 298 K
[2] = biological target: T1, KCa3.1 channel in A549-3R cells (Homo sapiens, UniProt O15554); assay: Staining of fixed A549-3R tumor cells (Protocol 1), fluorescence microscopy; format: cell-based; details: 10 µM in PBS, 10 min, 4 °C, Protocol 1
T1 construct: the non-small cell lung cancer cell line A549-3R with a high expression of the KCa3.1 channel was employed; endogenous in cells; host or cells: A549-3R cells
Procedure: For the fixation of the cells, the DMEM medium was removed from the glass bottom dish after incubation for 24 h, and the cells were washed with 1 mL of PBS. Subsequently, 1 mL of 4% paraformaldehyde in PBS solution was added to the glass bottom dish and the mixture was incubated for 30 min at room temperature. Thereafter, the cells were washed five times with 1 mL of PBS and used for the cell staining experiments.
After fixation of the cells (Section 2.10.2), 300 µL of the 10 µM staining solution was added to the glass bottom dish. The cells were incubated for 10 min at 4 °C in a dark chamber. After incubation, the cells were washed five times with 1 mL of PBS and used subsequently for fluorescence microscopy.
An Axiovert 200 inverted microscope (Carl Zeiss AG, Jena, Germany) with a ×100 oil immersion objective and a digital camera (SPOT RT SE from Diagnostic Instruments Inc., Livingston, UK) were used. The camera was controlled by MetaVue software (version 6.3r6, Visitron, Germany). Two different filter sets were employed, the FITC filter set (Carl Zeiss Filter Set 10 bandwidth excitation filter 450–490, color splitter 510, bandpass filter 515–565) and the TRITC filter set (Carl Zeiss Filter Set 15, bandpass excitation filter 546/12, dichroic mirror 580, emission filter Long Pass 590).
Using the free imaging software ImageJ (1.53f51, NIH, USA), squares with an edge length of 50 × 50 pixels, corresponding to an area of 9 µm^2, were randomly placed in a cell and signals with Full Width at Half Maximum (FWHM) of ≤5 pixels (~300 nm) were counted as a KCa3.1 channel. For the evaluation, 7 squares were analyzed.
For the staining experiments, the non-small cell lung cancer cell line A549-3R with a high expression of the KCa3.1 channel was employed. An optimized staining protocol (Protocol 1) described previously was followed to analyze the imaging properties of the fluorescent probes. In brief, the 10 µM solution of the senicapoc–dye conjugate in PBS was added to adherent A549-3R cells in a glass bottom dish and the set-up was incubated for 10 min at 4 °C in a dark chamber. After careful washing, the cells were analyzed with a fluorescence microscope.
The images were analyzed with respect to size and density of the fluorescent dots. For this purpose, a square with a size of 50 × 50 pixels was randomly placed on the cell images using ImageJ. The intensities of the signals within the square were analyzed to calculate the Full Width at Half Maximum (FWHM) for each selected dot, which represents a measure for the signal size. For the accurate representation of a single KCa3.1 channel, the FWHM should be in the range of five pixels. Signals with a FWHM of ≤5 pixels within the square were regarded as labeled KCa3.1 channels and the number of identified channels was used to determine the density of the ion channels on the cells (Figure S8, Supplementary Materials).

[3] = logP by HPLC retention time correlation; format: physicochemical; details: standardized reversed phase HPLC system
Procedure: The logP values were recorded using HPLC analysis. Thus, the retention time of the test compound in a standardized reversed phase HPLC system is correlated with the retention times of compounds with known logP values.
In addition to the logD7.4 values, the logP values of the fluorescent probes were recorded by HPLC, i.e., after calibration of the method, the retention times were correlated with the logP values or the compounds [33]. […] Fluorescein-labeled ligands 21a and 21b are considerably more polar than the corresponding bodipy-labeled senicapoc derivatives.

[4] = logD7.4 by micro shake flask method (n-octanol / MOPS buffer pH 7.4, LC-MS); format: physicochemical; details: read-out: logD7.4 ± SD (Micro Shake Flask)
Procedure: The logD7.4 values were recorded using the micro shake flask method. In this method, the test compound is distributed between n-octanol and MOPS buffer pH 7.4, and the amount of the compound in the buffer layer is determined by mass spectrometry.
The new fluorescent dyes were designed to increase the polarity and reduce the non-specific labeling of lipophilic membranes of cells. Moreover, a higher polarity should lead to increased water solubility and thus improved handling of the dyes. The logD7.4 value was recorded as a measure of the polarity/lipophilicity using our recently published micro-shake flask method. According to this method, the amount of compound in the aqueous 3-morpholinopropanesulfonic acid (MOPS) buffer pH 7.4 was determined by LC-MS [31, 32].

[5] = UV-Vis absorption and time-resolved photoluminescence spectroscopy; format: physicochemical
Procedure: All solvents used were of spectrometric grade (Uvasol®). UV-visible absorption spectra were measured using a Shimadzu UV–VIS spectrophotometer (UV-3600i). Photoluminescence quantum yields were measured with a Hamamatsu Photonics absolute PL quantum yield measurement system (C9920-02) equipped with a L9799-01 CW Xe light source (150 W), a monochromator, a C7473 photonic multi-channel analyzer, an integrating sphere and employing U6039-05 software, version 3.6.0. (Hamamatsu Photonics, Ltd., Shizuoka, Japan). Steady-state excitation and emission spectra were recorded on a FluoTime 300 spectrometer from PicoQuant equipped with a 300 W ozone-free Xe lamp (200–1100 nm), a 10 W Xe-flash lamp (200–1100 nm, pulse width ca. 1 µs) with repetition rates of 1–300 Hz, a double-grating excitation monochromator (Czerny–Turner type, grating with 1200 lines/mm, blaze wavelength: 300 nm), diode lasers (pulse width < 20 ps) operated by a computer-controlled laser driver PDL-828 “Sepia II” (repetition rate up to 80 MHz, burst mode for slow and weak decays), two emission monochromators (Czerny–Turner, selectable between double-grating blazed at 500 nm with 2.7 nm/mm dispersion and 1200 lines/mm, or single-grating blazed at 1250 nm with 5.4 nm/mm dispersion and 600 lines/mm) with adjustable slit width between 25 μm and 7 mm. Glam–Thompson polarizers for excitation (after the Xe-lamps) and emission (after the sample) were used. Different sample holders (Peltier-cooled mounting unit ranging from −15 to 110 °C or an adjustable front-face sample holder), along with two detectors (namely a PMA Hybrid-07 from PicoQuant with transit time spread FWHM < 50 ps, 200–850 nm, or a H10330C-45-C3 NIR detector with transit time spread FWHM 0.4 ns, 950–1400 nm from Hamamatsu) were used. Steady-state spectra and photoluminescence lifetimes were recorded in TCSPC mode by a PicoHarp 300 (minimum base resolution 4 ps) or in MCS mode by a TimeHarp 260 (where up to several ms can be traced). Emission and excitation spectra were corrected for source intensity (lamp and grating) by standard correction curves. For samples with lifetimes in the ns order, an instrument response function calibration (IRF) was performed using a diluted Ludox® dispersion. Lifetime analysis was performed using the commercial EasyTau 2 software, version 2.3. (PicoQuant, Berlin, Germany). The quality of the fit was assessed by minimizing the reduced chi squared function (χ^2) and visual inspection of the weighted residuals and their autocorrelation.
Fluorescence microscopy was used for the analysis of KCa3.1 channel labeling of cells with fluorescent dyes. Therefore, the photophysical properties of fluorescently labeled senicapoc derivatives 15a, 21a, and 22 were determined. Since the fluorophores are separated from the rest of the molecule by a linker, the photophysical properties could be recorded using azide precursors 6a, 6b, and 7a as well.

[6] = general property stated without reference
[7] = solution (CH2Cl2 or CH3CN), c = 10^−5 M, 298 K
[8] = measured in CH3CN, c = 10^−5 M, CH2CH2O linker instead of CH2CH2OCH2CH2O linker

CC1=CC(C)=[N+]2C1=C(c1ccc(OCCOCCN=[N+]=[N-])cc1)c1c(C)cc(C)n1[B-]2(F)F [6a]
Absorption λmax ([1]; CH2Cl2, c = 10^−5 M): 501 nm | Emission λmax ([1]; CH2Cl2, c = 10^−5 M): 515 nm | Stokes Shift ([1]; CH2Cl2, c = 10^−5 M): 14 nm | ΦF absolute quantum yield ([1]; CH2Cl2, c = 10^−5 M): 0.48 ± 0.02 | τ photoluminescence lifetime ([1]; CH2Cl2, c = 10^−5 M): 3.80 ± 0.02 ns

CCC1=C(C)C2=C(c3ccc(OCCOCCN=[N+]=[N-])cc3)c3c(C)c(CC)c(C)n3[B-](F)(OC)[N+]2=C1C (stereo not drawn) [7b, 8-{4-[2-(2-Azidoethoxy)ethoxy]phenyl}-2,6-diethyl-4-fluoro-4-methoxy-1,3,5,7-tetramethyl-4-bora-3a,4a-diaza-s-indacene]
staining pattern of fixed A549-3R tumor cells [2]: a punctate staining pattern characteristic for the interaction with the ion channel was not observed; also recorded: high fluorescence intensity inside and around the nucleus

CCC1=C(C)C2=C(c3ccc(OCCOCCn4cc(COc5ccc(C(C(N)=O)(c6ccccc6)c6ccc(F)cc6)cc5)nn4)cc3)c3c(C)c(CC)c(C)n3[B-](F)(F)[N+]2=C1C (stereo not drawn) [9b, 2-{4-[(1-{2-[4-(2,6-Diethyl-4,4-difluoro-1,3,5,7-tetramethyl-4-bora-3a,4a-diaza-s-indacen-8-yl)phenoxy]ethoxyethyl}-1,2,3-triazol-4-yl)methoxy]phenyl}-2-(4-flluorophenyl)-2-phenylacetamide]
chromatographic logP [3]: 6.7 | staining pattern of fixed A549-3R tumor cells [2]: unspecific staining; also recorded: unspecific labeling

O=C1OC2(c3ccc(O)cc3Oc3cc(O)ccc32)c2ccccc21 [fluorescein, reference compound]
absorption maximum λmax [1, 6]: 485 nm | emission maximum λmax [1, 6]: 514 nm

CO[B-]1(F)n2c(C)cc(C)c2C(CCCCn2cc(COc3ccc(C(C(N)=O)(c4ccccc4)c4ccc(F)cc4)cc3)nn2)=C2C(C)=CC(C)=[N+]21 (stereo not drawn) [16a, 2-[4-({1-[4-(4-Fluoro-4-methoxy-1,3,5,7-tetramethyl-4-bora-3a,4a-diaza-s-indacen-8-yl)butyl]-1,2,3-triazol-4-yl}methoxy)phenyl]-2-(4-fluorophenyl)-2-phenylacetamide]
logD [4]: > 5 | chromatographic logP [3]: 4 | staining pattern of fixed A549-3R tumor cells [2]: unspecific staining; also recorded: unspecific labeling

CO[B-]1(F)n2c(C)cc(C)c2C(c2ccc(OCCOCCN=[N+]=[N-])cc2)=C2C(C)=CC(C)=[N+]21 (stereo not drawn) [7a]
Absorption λmax ([1]; CH2Cl2, c = 10^−5 M): 501 nm | Emission λmax ([1]; CH2Cl2, c = 10^−5 M): 516 nm | Stokes Shift ([1]; CH2Cl2, c = 10^−5 M): 15 nm | ΦF absolute quantum yield ([1]; CH2Cl2, c = 10^−5 M): 0.43 ± 0.02 | τ photoluminescence lifetime ([1]; CH2Cl2, c = 10^−5 M): 3.50 ± 0.01 ns

CC1=CC(C)=[N+]2C1=C(CCCCn1cc(COc3ccc(C(C(N)=O)(c4ccccc4)c4ccc(F)cc4)cc3)nn1)c1c(C)cc(C)n1[B-]2(F)F (stereo not drawn) [15a, 2-[4-({1-[4-(4,4-Difluoro-1,3,5,7-tetramethyl-4-bora-3a,4a-diaza-s-indacen-8-yl)butyl]-1,2,3-triazol-4-yl}methoxy)phenyl]-2-(4-fluorophenyl)-2-phenylacetamide]
quantum yield ([5]; see Table 2): 96% | Absorption λmax [5, 7]: 501 nm | Emission λmax [5, 7]: 513 nm | Stokes Shift [5, 7]: 12 nm | ΦF absolute quantum yield [5, 7]: 0.96 ± 0.04 | τ photoluminescence lifetime [5, 7]: 5.77 ns and 5.77 ± 0.02 ns | chromatographic logP [3]: 4.8 | staining pattern of fixed A549-3R tumor cells [2]: unspecific staining; also recorded: unspecific labeling

CCC1=C(C)C2=C(c3ccc(OCCOCCN=[N+]=[N-])cc3)c3c(C)c(CC)c(C)n3[B-](F)(F)[N+]2=C1C [6b, 8-[4-(2-(2-Azidoethoxy)ethoxy)phenyl]-2,6-diethyl-4,4-difluoro-1,3,5,7-tetramethyl-4-bora-3a,4a-diaza-s-indacene]
increase of absorption and emission maxima by two ethyl moieties at the bodipy core ([5]; 6b compared with 6a): 23 nm | Absorption λmax [1, 8]: 524 nm | Emission λmax [1, 8]: 537 nm | Stokes Shift [1, 8]: 13 nm | ΦF absolute quantum yield [1, 8]: 0.81 ± 0.02 | τ photoluminescence lifetime [1, 8]: 6.32 ± 0.05 ns

NC(=O)C(c1ccccc1)(c1ccc(F)cc1)c1ccc(OCCOCCOCCOCCNC(=S)Nc2ccc3c(c2)C(=O)OC32c3ccc(O)cc3Oc3cc(O)ccc32)cc1 (stereo not drawn) [21b, 2-(4-{12-[3-(3′,6′-Dihydroxy-3-oxo-3H-spiro[[2]benzofuran-1,9′-xanthen]-5-yl)thioureido]-1,4,7,10-tteraoxadodecan-1-yl}phenyl)-2-(4-fluorophenyl)-2-phenylacetamide]
chromatographic logP ([3]; HPLC at pH 6.0): 1.3 | staining pattern of fixed A549-3R tumor cells [2]: A weak green fluorescence of the membrane and an intense staining of the nucleus

CCC1=C(C)C2=C(CCCCn3cc(COc4ccc(C(C(N)=O)(c5ccccc5)c5ccc(F)cc5)cc4)nn3)c3c(C)c(CC)c(C)n3[B-](F)(OC)[N+]2=C1C (stereo not drawn) [16b, 2-[4-({1-[4-(2,6-Diethyl-4-fluoro-4-methoxy-1,3,5,7-tetramethyl-4-bora-3a,4a-diaza-s-indacen-8-yl)butyl]-1,2,3-triazol-4-yl}methoxy)phenyl]-2-(4-fluorophenyl)-2-phenylacetamide]
chromatographic logP [3]: 5.4 | staining pattern of fixed A549-3R tumor cells [2]: unspecific staining; also recorded: unspecific labeling
